The values below come from US4897390A, “Novel anti-obesity compounds and method of use” (priority 1987, dated 1990).

The test system of one series is 11β-hydroxylase. The settings on record: cited from earlier work.
For series [1] the following is noted: cited from earlier work.
For series [2], the system named is thyroid stimulating hormone and thyroxine. The settings on record: cited from earlier work.
Series [3] deals with glucose-6-phosphate dehydrogenase (G6PD). To be noted: cited from earlier work.
Another series has as its system NADH oxidase. To be noted: cited from earlier work.
The test system of series [4] is uterine weight of the immature mouse. Briefly: Estrogenic effect: uterine weight of the immature mouse. The class given is in vivo, C57-WH mice. As for the experimental part: Immature female C57-WH mice were maintained at 25° C. at 12 hours light/12 hours dark (lights on at 0800 h and off at 2000 h). Purina Lab Chow and water were available ad libitum. The control and each experimental group of animals consisted of six mice. Treatment began after an acclimation period of five days. Beginning at 27 days of age and continuing for three consecutive days, the mice were orally intubated with DHEA or β-MET suspended in sesame oil. The control mice received only sesame oil. Between 1400-1600 h on day 30, all animals were sacrificed by an overdose of ether. Uteri were removed, cleaned of adventitious tissue, and weighed to the nearest 0.5 mg.
All reported results are expressed as the mean plus or minus the standard error (mean±SE).

For series [5] the following is noted: DHEA treatment in mice; cited from earlier work.
In series [6] the test system is fatty acid synthetase. To be noted: cited from earlier work.
For series [7], the system named is fatty acid synthetase. To be noted: prolonged treatment; mice with excessive levels of this enzyme; cited from earlier work.
For series [8] the following is noted: cited from earlier work; for deactivation and excretion from general circulation: once excreted from cells to the general circulation; for conjugation in blood stream: when excreted by individual cells to the blood stream.
In series [9] the test system is obesity. The settings on record: known; cited from earlier work.
Series [10] can be described thus: Body weight of C57-WH mice treated with β-MET for 14 weeks. Format: in vivo. To be noted: for mean weight after 14 weeks: 0.07 mg (~4.6 mg/kg) PO three times weekly, n=10; for significance of difference in mean weights versus control: significant at p<0.01. As for the experimental part: (§1) Forty C57-WH mice were maintained five per cage in a temperature-controlledroom (25° C.) with 12-h light/day (7:00 A.M. to 7:00 P.M.). All mice were at ten weeks of age when the experiment was begun.
(§2) The mice were divided into four groups: β-MET-treated female; control female; β-MET-treated male; and control male (for each group, n=10). All β-MET-treated animals received 0.07 mg (~4.6 mg/kg) of the β-MET administered as a suspension in sesame oil by PO intubation three times weekly. The control animals received only sesame oil. The mice were treated for a period of 14 weeks with access to Purina Laboratory chow and water ad libitum. Body weights were recorded weekly, and food consumption was determined by subtracting the food remaining from the food supplied at the beginning of each week.
(§3) Student's t-test was used in all statistical analyses of the data. Data are presented as means ±SD from the four groups of mice. Differences were considered significant at p<0.01.

Series [11] is described as follows: Acute oral toxicity in mice (LD50). Format: in vivo, C57-WH mice. As for the experimental part:
The LD50 of β-MET administered orally in mice could not be accurately determined. However, five male and five female C57-WH mice, each weighing approximately 15 g, received 200 mg of β-MET, suspended in sesame oil, by p.o. intubation.

Series [12] can be described thus: Short-term (thirty day) treatment with large doses in mice. The class given is in vivo, C57-WH mice. As for the experimental part: Five male and five female C57-WH mice (age: ~11 weeks, weight: ~15 g each) each received 200 mg/kg of β-MET, suspended in sesame oil, by p.o. intubation every second day for a period of thirty days. Another group of ten matched controls received only the sesame oil. […] Abnormalities such as hypertrophic lymph nodes, diarrhea, bloody stools, or loss of hair luster were not seen.

Series [13] can be described thus: Cumulative food consumption of C57-WH mice treated with β-MET for 14 weeks. The class given is in vivo. As for the experimental part:
as §1, §2, §3

In series [14] the test system is obesity. Nature of the series: Anti-obesity efficacy in various mammalian systems (general statement). Format: in vivo.
In a further series the test system is Salmonella typhimurium. To be noted: alone and with liver homogenate fraction from rat treated with polychlorinated biphenyl. As for the experimental part:
β-MET was tested for mutagenicity by administration to a his^- auxotrophic mutant of Salmonella typhimurium.β-MET was administered alone and with a liver homogenate fraction from a rat that had been treated with polychlorinated biphenyl.

Where [15] appears, read: 200 mg/kg p.o. every second day for thirty days.

`C[C@]12CC[C@H](O)CC1=CC[C@@H]1[C@@H]2CC[C@]2(C)C(=O)CC[C@@H]12` [DHEA, dehydroepiandrosterone]: the “inhibition of 11β-hydroxylase” value in the series with 11β-hydroxylase is recorded as “known to inhibit 11β-hydroxylase”. For the same compound, in [1] (in vivo), the toxicity in humans result is “relatively low toxicity in humans”. The “estrogenic and androgenic effects” value in [1] (long-term administration, humans) was “Estrogenic and androgenic effects”. The thyroid follicle epithelium entry in series [2] (rat studies) is “hypertrophy of the thyroid follicle epithelium”. The “levels of thyroid stimulating hormone and thyroxine in the blood” value in series [2] (rat, in vivo) is “known to increase levels of thyroid stimulating hormone and thyroxine in the blood”. In addition, in series [3], the “inhibition of mammalian G6PD” value was “known to inhibit mammalian glucose-6-phosphate dehydrogenase”. Further, the “inhibition of NADH oxidase” value with NADH oxidase was “known inhibitor of NADH oxidase”. Also, the Uterine weight in series [4] (daily dose 400.0 mg/kg, oral, three consecutive days from day 27, mean±SE, control 58.0 ± 3) amounted to 257.0 ± 5 mg/100 g body weight. The “lipogenesis and fat cell size” value in series [5] is “decreases in lipogenesis and fat cell size”. In addition, the “inhibition of fatty acid synthetase” value with fatty acid synthetase [6] is on record as “known to directly inhibit fatty acid synthetase”. The “liver and adipose tissue fatty acid synthetase activity” value in the series with fatty acid synthetase [7] was “decrease liver and adipose tissue fatty acid synthetase activity”.

On to `C[C@]12CC[C@@H](O)C[C@H]1CC[C@@H]1[C@@H]2CC[C@]2(C)C(=O)CC[C@@H]12` [α-HET, 3α-hydroxyetiocholanone], for which, in [8], the “deactivation and excretion from general circulation” value was “rapidly deactivated and excreted from the body”; the “conjugation in blood stream” value is “conjugated to glucuronic acid at the 3-hydroxy position”. Moreover, the “anti-obesity effects attributed to DHEA” value in the series with obesity [9] is on record as “known to accomplish the anti-obesity effects attributed to DHEA”.

As for `C[C@]12CC[C@H](O)C[C@H]1CC[C@@H]1[C@@H]2CC[C@]2(C)C(=O)CC[C@@H]12` [β-HET, 5-β-androstan-3-β-ol-17-one], in [8], the “deactivation and excretion from general circulation” value is “rapidly deactivated and excreted from the body”; the “conjugation in blood stream” value is “conjugated to glucuronic acid at the 3-hydroxy position”. The “anti-obesity effects attributed to DHEA” value with obesity [9] is given as “known to accomplish the anti-obesity effects attributed to DHEA”.

The term LD50 denotes the dose at which mortality reaches 50%. Read a low LD50 as a more toxic substance. With `C[C@H]1CC[C@@]2(C)[C@H](CC[C@@H]3[C@@H]2CC[C@]2(C)C(=O)CC[C@@H]32)C1` [β-MET, 3-β-methyl-5-β-androstan-17-one], the “mean weight after 14 weeks” value in series [10] (female, control female 26.1 g) is given as 21.8 g. In addition, in series [10] (female), the “significance of difference in mean weights versus control” value is listed as “a significant difference in mean weights was observed after the third week of treatment”. In addition, the “inhibition of weight gain” value in [10] (male and female C57-WH mice, 14 weeks (FIG. 5)) is on record as “significantly inhibits weight gain”. In addition, the “mean weight after 14 weeks” value in series [10] (male, control male 24.8 g) is recorded as 20.7 g. For the same compound, in series [10] (male), the “significance of difference in mean weights versus control” value is reported as “statistically significant after the sixth week of treatment”. Besides, the survival result in series [11] (200 mg p.o. per ~15 g mouse, five male and five female) is on record as “All of the animals survived”. In series [11] (mouse, in vivo, po, mice, p.o. in sesame oil), this compound registered an LD50 above 10000 mg/kg. Also, in series [12] (setting [15]), the “behavioral or external physical differences from controls” value was “no obvious behavioral or external physical differences from controls”; the “hypertrophic lymph nodes, diarrhea, bloody stools, or loss of hair luster” value is recorded as “not seen”; the postmortem studies result is reported as “no gross abnormalities or visible pathological changes”; the survival and health result was “all experimental mice were alive and apparently healthy”. Also, in series [12] (approximately 20x the effective anti-obesity dose in mice), the “harm by short-term treatment with relatively large doses” value is given as “appears not to be harmful to mice”. For the same compound, in series [12] (mouse, in vivo, po, 200 mg/kg), the “examination of visible membranes” value was “no abnormal findings”. The estrogenic activity entry in series [4] (mouse, in vivo) is reported as “does not exhibit similar estrogenic activity”. For the same compound, in series [13] (female, 14 weeks (FIG. 6)), the “food intake versus control” value was “not significantly different”. For the same compound, the effect on appetite entry in [13] (male and female (FIG. 6)) was “without suppressing appetite”. Besides, the “cumulative food consumption versus control” value in series [13] (male, 14 weeks (FIG. 6)) is recorded as “not significantly different”. Also, in the series on obesity [14] (comparison to 3β-HET), the “inhibition of obesity in comparison to 3β-HET” value was “much more effective inhibitor of obesity”. In the series on obesity [14] (various mammalian systems), the “antiobesity efficacy and safety” value was “safe and effective antiobesity agent”. Besides, the mutagenicity entry with Salmonella typhimurium is listed as “not mutagenic”.
